Values of other authors as cited in patent US5986061A (priority 1995, dated 1999).

T1: Hu-IFN-α/β receptor on bovine MDBK cells (Bos taurus, UniProt Q04790+Q95141)
T1 construct: endogenous in cells; host or cells: MDBK
T1 sequence (Q04790 25-560): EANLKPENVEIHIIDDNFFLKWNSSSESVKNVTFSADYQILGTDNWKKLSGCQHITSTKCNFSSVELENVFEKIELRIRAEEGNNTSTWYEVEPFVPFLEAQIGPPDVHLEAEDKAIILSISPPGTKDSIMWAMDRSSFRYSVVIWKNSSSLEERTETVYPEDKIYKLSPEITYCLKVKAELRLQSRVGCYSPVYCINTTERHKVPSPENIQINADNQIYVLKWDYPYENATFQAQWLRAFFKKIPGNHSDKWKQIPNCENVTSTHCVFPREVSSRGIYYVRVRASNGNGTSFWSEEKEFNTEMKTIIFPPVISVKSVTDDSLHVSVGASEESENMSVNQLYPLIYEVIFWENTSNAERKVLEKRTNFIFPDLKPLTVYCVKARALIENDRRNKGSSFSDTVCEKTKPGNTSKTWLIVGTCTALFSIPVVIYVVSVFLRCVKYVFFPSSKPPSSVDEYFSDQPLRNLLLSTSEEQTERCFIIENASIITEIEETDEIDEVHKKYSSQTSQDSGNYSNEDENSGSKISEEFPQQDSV
T1 sequence (Q95141 27-530): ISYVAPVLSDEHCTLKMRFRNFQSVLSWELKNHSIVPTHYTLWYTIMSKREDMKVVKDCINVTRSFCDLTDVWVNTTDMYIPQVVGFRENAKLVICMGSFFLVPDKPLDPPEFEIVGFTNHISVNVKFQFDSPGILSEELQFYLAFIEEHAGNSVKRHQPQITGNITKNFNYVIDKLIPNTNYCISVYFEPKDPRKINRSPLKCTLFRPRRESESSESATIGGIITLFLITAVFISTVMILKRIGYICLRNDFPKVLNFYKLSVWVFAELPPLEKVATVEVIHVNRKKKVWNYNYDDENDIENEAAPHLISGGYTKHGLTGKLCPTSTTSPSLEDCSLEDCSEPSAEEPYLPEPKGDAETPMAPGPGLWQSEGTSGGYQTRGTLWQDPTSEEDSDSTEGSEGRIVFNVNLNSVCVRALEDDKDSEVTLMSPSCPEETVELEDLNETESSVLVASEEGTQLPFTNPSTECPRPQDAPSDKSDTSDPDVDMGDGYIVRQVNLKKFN

B1: Hu-IFN-gamma: human immune (gamma) interferon (protein, UniProt P01579 24-161, looked up)
Interferon gamma: QDPYVKEAENLKKYFNAGHSDVADNGTLFLGILKNWKEESDRKIMQSQIVSFYFKLFKNFKDDQSIQKSVETIKEDMNVKFFNSNKKKRDDFEKLTNYSVTDLNVQRKAIHELIQVMAELSPAAKTGKRKRSQMLFRG

Experiments:
[1] = test system: vesicular stomatitis virus and bovine MDBK cells; conditions: literature (16, 28, 63); cited from earlier work
[2] = target: T1, Hu-IFN-α/β receptor on bovine MDBK cells; conditions: literature (16, 28, 63); cited from earlier work

| Molecule | antiviral activity on MDBK cell line [1] | binding to MDBK cell line [2] |
| --- | --- | --- |
| Hu-IFN-gamma: human immune (gamma) interferon | does not | – |
| B1 | – | does not |
